These results are taken from patent publication US10772886B2, “CXCR-2 inhibitors for treating crystal arthropathy disorders” (ARDEA BIOSCIENCES, INC., priority 2016, dated 2020).

In assay [1] the target is T1, CXCR-2 (Homo sapiens, UniProt P25025).
T1 sequence (P25025 1-360): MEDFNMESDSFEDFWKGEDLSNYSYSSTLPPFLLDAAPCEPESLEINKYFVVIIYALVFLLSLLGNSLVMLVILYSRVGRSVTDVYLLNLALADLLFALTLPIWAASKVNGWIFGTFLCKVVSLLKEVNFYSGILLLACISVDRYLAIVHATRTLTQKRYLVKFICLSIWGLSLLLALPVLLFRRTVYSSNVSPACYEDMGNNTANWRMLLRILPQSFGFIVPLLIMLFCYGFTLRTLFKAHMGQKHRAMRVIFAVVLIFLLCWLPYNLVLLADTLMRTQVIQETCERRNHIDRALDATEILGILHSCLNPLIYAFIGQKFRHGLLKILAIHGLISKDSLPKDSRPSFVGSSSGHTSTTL
The conditions noted are these: cited from earlier work.

In assay [2] the test system is rat air pouch model of crystal-induced arthropathy (MSU). The experiment in a line: Rat air pouch model, Example 6 (Compounds 2, 3 and 4). In kind it is in vivo. Here is the method: (§1) Sodium hydroxide (40 g, Fisher Scientific) was dissolved in de-ionized water (100 mL, dH2O) to provide a 10N solution. Uric acid (16 g, Sigma) was added to de-ionized water (3400 mL) containing sodium hydroxide solution (11.8 mL, 10N) and heated to 60° C. with constant stirring. […] The resulting clear solution was cooled to 4-8° C., resulting in the formation of crystals, which were isolated by filtration, washed three times with de-ionized wa[…]) and dried at 37° C. The dried mono sodium urate crystals were sifted into an air-tight container for storage. […] Methylcellulose (0.4 g, Sigma) was dissolved in de-ionized water (100 mL) to provide a 0.4% solution used as vehicle. […] Test compounds were suspended in vehicle to provide the desired concentrations, and diluted accordingly. […] Male Sprague-Dawley rats (Charles River Laboratories, 160-180 g) were received, individually examined and housed in cages of five rats each. The animals were in apparent good health with no clinical signs of disease or distress. The rats were placed in quarantine with daily inspections, ear notched for identification purposes and shaved at the nape of the neck. The rats were anesthetized (isoflurane), and the nape of the neck was cleansed with 70% isopropanol (Butler Animal Health Supply) followed by povidone-iodine solution (Ricca Chemical Co.). Sterile air (30 mL, 0.2 μm, Millipore) was injected subcutaneously using a 23 G×11⁄2 inch needle fixed to a 30 mL syringe. The rats were returned to routine housing with no adverse reactions observed. The rats were anesthetized (isoflurane), and the nape of the neck was cleansed with 70% isopropanol (Butler Animal Health Supply) followed by povidone-iodine solution (Ricca Chemical Co.). Sterile air (15 mL, 0.11 μm, Millipore) was injected subcutaneously using a 23 G×11⁄2 inch needle fixed to a 20 mL syringe. The rats were returned to routine housing with no adverse reactions observed. The rats were weighed and sorted into treatment groups based on average body weight. As appropriate, the rats were dosed orally with test compound or vehicle (saline alone). […] Thirty minutes after SC injection or two hours after PO dosing, MSU (15 mL) was injected into the air pouch using an 18 G×2 inch needle fitted to a 20 mL syringe. Control group was injected with 15 mL sterile saline (vehicle). The injection sites were closed (collodion, Macron) and the rats returned to their cages with no adverse effects observed. Four hours after MSU/saline injection, the rats were anesthetized and heparinized saline (5 mL, 10 U/mL) was injected into the air pouch. […] An aliquot of the exudate was transferred to green Eppendorf tubes for total white blood cell (WBC) measurement. After allowing the MSU crystals to settle out for ten minutes, an aliquot of the exudate was transferred to heparinized microtainer tubes (Becton Dickinson) for differential white blood cell counts. The remainder of the exudate was centrifuged and an aliquot of the supernatants was dispensed to labeled clear Eppendorf tubes and stored at -80° C. The rats were exsanguinated into pre-chilled serum separator tubes, processed to serum, and 0.5 mL aliquot was stored at -80° C. in labeled Eppendorf tubes. […] [table]

For assay [3] the test system is unchanged. Briefly: Rat air pouch model of crystal-induced arthropathy, Example 4 (Compound 2). In kind it is in vivo. On the procedure: as §1, with “Sterile air (30 mL, 0.2 μm, Millipore) was injected subcutaneously using a 23 G×11⁄2 inch needle fixed to a 30 mL syringe.” left out, “Sterile air (15 mL, 0.11 μm, Millipore) was injected subcutaneously using a 23 G×11⁄2 inch needle fixed to a 20 mL syringe.” left out

On to `CC1CN(S(=O)(=O)Nc2cc(O[C@H](C)[C@@H](O)CO)nc(SCc3ccc(F)cc3)n2)C1` [Compound 4, N-(6-(((2R,3S)-3,4-dihydroxybutan-2-yl)oxy)-2-((4-fluorobenzyl)thio)pyrimidin-4-yl)-3-methylazetidine-1-sulfonamide], for which the “inhibit CXCR-2” value in assay [1] is “shown to inhibit CXCR-2”. In addition, in assay [2] (1.0 umol/kg PO, Group 8), the “Avg Exudate Vol” value turned out to be 10 mL, the “Avg Total WBC” value was 270 ×10^6 and the Neutrophils is recorded as 165 ×10^6. For the same compound, in assay [2] (30 umol/kg PO, Groups 7, 9), the “Avg Exudate Vol” value turned out to be 7 mL, the “Avg Total WBC” value was 140 ×10^6 and the Neutrophils is 95.4 ×10^6. Moreover, in assay [2] (100 umol/kg PO, Group 10), the “Avg Exudate Vol” value was found to be 6.5 mL, the “Avg Total WBC” value was 76 ×10^6 and the Neutrophils is given as 48.6 ×10^6.

For `COc1cc2c(c(OC)c1OC)-c1ccc(OC)c(=O)cc1[C@@H](NC(C)=O)CC2` [Colchicine, COLCHICINE, reference compound], in assay [2] (1 mpk SC, Group 4), the “Avg Exudate Vol” value is reported as 5.8 mL, the “Avg Total WBC” value is 17 ×10^6 and the Neutrophils was 9.9 ×10^6. In assay [3] (1 mg/kg SC, Group 3), the “Avg Exudate Vol” value is given as “***6.4 mL”, the “Avg Total WBC” value is reported as “**17.6 ×10^6” and the Neutrophils entry was “**11.0 ×10^6”.

In the case of `CC[C@@H](Nc1c(Nc2cccc(C(=O)N(C)C)c2O)c(=O)c1=O)c1ccc(C)o1` [Compound 2, (R)-2-hydroxy-N,N-dimethyl-3-((2-((1-(5-methylfuran-2-yl)propyl)amino)-3,4-dioxocyclobut-1-en-1-yl)amino)benzamide], the “inhibit CXCR-2” value in assay [1] is on record as “shown to inhibit CXCR-2”. Also, the “Avg Exudate Vol” value is reported as 8.4 mL in assay [2] (3 mpk PO, Group 3); 10.1 mL in assay [3] (0.3 mg/kg PO, Group 4); 9.3 mL in assay [3] (3 mg/kg PO, Group 5); “***6.8 mL” in assay [3] (30 mg/kg PO, Group 6). Moreover, the “Avg Total WBC” value in assay [2] (3 mpk PO, Group 3) is 22 ×10^6; in assay [3] (0.3 mg/kg PO, Group 4) it was 145.2 ×10^6; in assay [3] (3 mg/kg PO, Group 5), “*33.4 ×10^6”; in assay [3] (30 mg/kg PO, Group 6) it was “*51.7 ×10^6”. Moreover, the Neutrophils is recorded as 11.8 ×10^6 in assay [2] (3 mpk PO, Group 3); 114.2 ×10^6 in assay [3] (0.3 mg/kg PO, Group 4); “*19.8 ×10^6” in assay [3] (3 mg/kg PO, Group 5); “**16.0 ×10^6” in assay [3] (30 mg/kg PO, Group 6).

Consider `C[C@@H](Oc1cc(NS(=O)(=O)N2CCC2)nc(SCc2cccc(F)c2F)n1)[C@@H](O)CO` [Compound 3, N-(2-((2,3-difluorobenzyl)thio)-6-(((2R,3S)-3,4-dihydroxybutan-2-yl)oxy)pyrimidin-4-yl)azetidine-1-sulfonamide], for which the “inhibit CXCR-2” value in assay [1] is “shown to inhibit CXCR-2”. Further, in assay [2] (0.3 umol/kg PO, Group 5), the “Avg Exudate Vol” value is 10.7 mL, the “Avg Total WBC” value is 180 ×10^6 and the Neutrophils is 155 ×10^6. Further, in assay [2] (3.0 umol/kg PO, Group 6), the “Avg Exudate Vol” value came out at 10 mL, the “Avg Total WBC” value is 190 ×10^6 and the Neutrophils was 121 ×10^6. In assay [2] (30 umol/kg PO, Groups 7, 9), the “Avg Exudate Vol” value stood at 7 mL, the “Avg Total WBC” value was 96 ×10^6 and the Neutrophils is 44.6 ×10^6.
